Reference: article PMC10743086, “Immunofluorescence-Based Assay for High-Throughput Analysis of Multidrug Resistance Markers in Non-Small Cell Lung Carcinoma Patient-Derived Cells” (Diagnostics, 2023)
pIC50: −log10 of the molar value.

Columns and labels:
Assay type in all cases: cell-based, human
[1] = system: Non-cancer cells (CK8/18-) of patient-derived NSCLC cultures; assay: Cytotoxicity in patient-derived NSCLC cultures, non-cancer cells; conditions: Homo sapiens, 168 h, 7 days treatment
Procedure, shortened: (§1)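 PDC from resected NSCLC, Tumor Dissociation Kit, DMEM/F12 + 5% FBS, hydrocortisone, insulin, EGF, adenine. 1000 cells/well; drug added at 72 h, 7 d exposure. Fix 4% PFA 20 min RT, block 2% BSA 1 h; CK8/18 co-stain with ABC markers.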

[2] = system: ABCB1 expression in NCI-H460/R cells; assay: Immunofluorescence assay of MDR marker ABCB1 expression; conditions: five concentrations, 24 h
Procedure, shortened: (§2)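 Compounds added 48 h after seeding, then 24 h exposure. Cells fixed in 4% paraformaldehyde, BSA-blocked, co-stained for ABCB1 with CK8/18 to separate cancer from stromal cells; 4x automated imaging. Cytotoxicity from cell-count scoring; ABCB1 expression from multi-wavelength cell scoring.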

[3] = system: ABCB1 expression in NCI-H460 cells; assay: as above; conditions: five concentrations, 24 h
Procedure, shortened: as §2

[4] = system: ABCB1 expression in MRC-5 cells; assay: as above; conditions: five concentrations, 24 h
Procedure, shortened: as §2

[5] = system: ABCC1 expression in cancer cells (CK8/18+); assay: Immunofluorescence assay of ABCC1 expression in patient-derived NSCLC cultures; conditions: 7 days
Procedure, shortened: as §1

[6] = system: ABCB1 expression in cancer cells (CK8/18+); assay: Immunofluorescence assay of ABCB1 expression in patient-derived NSCLC cultures; conditions: 7 days
Procedure, shortened: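 Primary NSCLC cultures from surgically resected tumours, enzymatically dissociated, grown in supplemented DMEM/Ham's F12, seeded 1000 cells/well and drug-treated 72 h later for 7 days. PFA-fixed cells co-immunostained for CK8/18 (separating cancer from stromal cells) and ABCB1, ABCC1 or ABCG2.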

MRC-5 cells = assay: Cytotoxicity by immunofluorescence cell scoring (cell counts), normal fibroblasts; conditions: Homo sapiens, 24 h treatment
Procedure, shortened: as §2

[7] = system: ABCG2 expression in cancer cells (CK8/18+); assay: Immunofluorescence assay of ABCG2 expression in patient-derived NSCLC cultures; conditions: 7 days
Procedure, shortened: as §1

NCI-H460/R cells = assay: Cytotoxicity by immunofluorescence cell scoring (cell counts), multidrug-resistant NSCLC cell line; conditions: Homo sapiens, 24 h treatment
Procedure, shortened: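 ABCB1-overexpressing NCI-H460/R cells, doxorubicin-selected, treated 48 h after seeding for 24 h. Cytotoxicity from automated imaging cell counts after fixation and CK8/18 plus MDR-marker immunostaining, using cell-scoring analysis.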

[8] = culture TR58, non-cancer cells (CK8/18-)
[9] = culture TR64, non-cancer cells (CK8/18-)
[10] = culture TR65, non-cancer cells (CK8/18-)
[11] = culture TR84, non-cancer cells (CK8/18-)
[12] = culture TR87, non-cancer cells (CK8/18-)
[13] = NCI-H460/R (co-culture with MRC-5)
[14] = NCI-H460 (co-culture with MRC-5)
[15] = MRC-5 (co-culture with NCI-H460)
[16] = MRC-5 (co-culture with NCI-H460/R)
[17] = culture TR58, cancer cells (CK8/18+)
[18] = culture TR64, cancer cells (CK8/18+)
[19] = culture TR65, cancer cells (CK8/18+)
[20] = culture TR84, cancer cells (CK8/18+)
[21] = culture TR87, cancer cells (CK8/18+)
[22] = MRC5, 24 h, MRC-5 (co-culture with NCI-H460)
[23] = MRC5, 24 h, MRC-5 (co-culture with NCI-H460/R)

SMILES: Nc1ccn([C@@H]2O[C@H](CO)[C@@H](O)C2(F)F)c(=O)n1 [Gemcitabine, gemcitabine]
- pIC50 [1, 8]: 5.51
- pIC50 [1, 9]: 5.15
- pIC50 [1, 10]: 6.45
- pIC50 [1, 11]: 6.31
- pIC50 [1, 12]: 5.95
- ABCB1 Expression [2, 13]: no change
- ABCB1 Expression ([2]; NCI-H460/R monoculture): no change
- ABCB1 Expression [3, 14]: no change
- ABCB1 Expression ([3]; NCI-H460 monoculture): no change
- ABCB1 Expression [4, 15]: no change
- ABCB1 Expression [4, 16]: no change
- ABCB1 Expression ([4]; MRC-5 monoculture): no change
- ABCC1 expression [5, 17]: no change
- ABCC1 expression [5, 18]: increase (An increase in ABCB1, ABCC1, or ABCG2 expression of at least 20% at a minimum of one concentration is shown in the table.)
- ABCC1 expression [5, 19]: increase (An increase in ABCB1, ABCC1, or ABCG2 expression of at least 20% at a minimum of one concentration is shown in the table.)
- ABCC1 expression [5, 20]: increase (An increase in ABCB1, ABCC1, or ABCG2 expression of at least 20% at a minimum of one concentration is shown in the table.)
- ABCC1 expression [5, 21]: increase (An increase in ABCB1, ABCC1, or ABCG2 expression of at least 20% at a minimum of one concentration is shown in the table.)
- ABCB1 Expression [6, 17]: no change
- ABCB1 Expression [6, 18]: increase (An increase in ABCB1, ABCC1, or ABCG2 expression of at least 20% at a minimum of one concentration is shown in the table.)
- ABCB1 Expression [6, 19]: increase (An increase in ABCB1, ABCC1, or ABCG2 expression of at least 20% at a minimum of one concentration is shown in the table.)
- ABCB1 Expression [6, 20]: increase (An increase in ABCB1, ABCC1, or ABCG2 expression of at least 20% at a minimum of one concentration is shown in the table.)
- ABCB1 Expression [6, 21]: increase (An increase in ABCB1, ABCC1, or ABCG2 expression of at least 20% at a minimum of one concentration is shown in the table.)
- pIC50 (MRC-5 cells; [22]): < 4.00
- pIC50 (MRC-5 cells; [23]): < 4.00
- pIC50 (MRC-5 cells; MRC5, 24 h, MRC-5 monoculture): < 4.00
- ABCG2 expression [7, 17]: increase (An increase in ABCB1, ABCC1, or ABCG2 expression of at least 20% at a minimum of one concentration is shown in the table.)
- ABCG2 expression [7, 18]: increase (An increase in ABCB1, ABCC1, or ABCG2 expression of at least 20% at a minimum of one concentration is shown in the table.)
- ABCG2 expression [7, 19]: increase (An increase in ABCB1, ABCC1, or ABCG2 expression of at least 20% at a minimum of one concentration is shown in the table.)
- ABCG2 expression [7, 20]: increase (An increase in ABCB1, ABCC1, or ABCG2 expression of at least 20% at a minimum of one concentration is shown in the table.)
- ABCG2 expression [7, 21]: increase (An increase in ABCB1, ABCC1, or ABCG2 expression of at least 20% at a minimum of one concentration is shown in the table.)
- pIC50 (NCI-H460/R cells; [13]): 4.53
- pIC50 (NCI-H460/R cells; NCI-H460/R monoculture): 4.47

SMILES: CC(=O)O[C@H]1C(=O)[C@@]2(C)[C@H]([C@H](OC(=O)c3ccccc3)[C@]3(O)C[C@H](OC(=O)[C@H](O)[C@@H](NC(=O)c4ccccc4)c4ccccc4)C(C)=C1C3(C)C)[C@]1(OC(C)=O)CO[C@@H]1C[C@@H]2O [Paclitaxel, paclitaxel]
- pIC50 [1, 8]: 5.85
- pIC50 [1, 9]: 5.71
- pIC50 [1, 10]: 5.85
- pIC50 [1, 11]: 6.51
- pIC50 [1, 12]: 5.73
- ABCB1 Expression [2, 13]: no change
- ABCB1 Expression ([2]; NCI-H460/R monoculture): no change
- ABCB1 Expression [3, 14]: increase (An increase in ABCB1 expression of at least 20% at a minimum of one concentration is shown in the table.)
- ABCB1 Expression ([3]; NCI-H460 monoculture): increase (An increase in ABCB1 expression of at least 20% at a minimum of one concentration is shown in the table.)
- ABCB1 Expression [4, 15]: no change
- ABCB1 Expression [4, 16]: no change
- ABCB1 Expression ([4]; MRC-5 monoculture): no change
- ABCC1 expression [5, 17]: no change
- ABCC1 expression [5, 18]: increase (An increase in ABCB1, ABCC1, or ABCG2 expression of at least 20% at a minimum of one concentration is shown in the table.)
- ABCC1 expression [5, 19]: increase (An increase in ABCB1, ABCC1, or ABCG2 expression of at least 20% at a minimum of one concentration is shown in the table.)
- ABCC1 expression [5, 20]: increase (An increase in ABCB1, ABCC1, or ABCG2 expression of at least 20% at a minimum of one concentration is shown in the table.)
- ABCC1 expression [5, 21]: increase (An increase in ABCB1, ABCC1, or ABCG2 expression of at least 20% at a minimum of one concentration is shown in the table.)
- ABCB1 Expression [6, 17]: increase (An increase in ABCB1, ABCC1, or ABCG2 expression of at least 20% at a minimum of one concentration is shown in the table.)
- ABCB1 Expression [6, 18]: increase (An increase in ABCB1, ABCC1, or ABCG2 expression of at least 20% at a minimum of one concentration is shown in the table.)
- ABCB1 Expression [6, 19]: increase (An increase in ABCB1, ABCC1, or ABCG2 expression of at least 20% at a minimum of one concentration is shown in the table.)
- ABCB1 Expression [6, 20]: increase (An increase in ABCB1, ABCC1, or ABCG2 expression of at least 20% at a minimum of one concentration is shown in the table.)
- ABCB1 Expression [6, 21]: increase (An increase in ABCB1, ABCC1, or ABCG2 expression of at least 20% at a minimum of one concentration is shown in the table.)
- pIC50 (MRC-5 cells; [22]): < 5.30
- pIC50 (MRC-5 cells; [23]): < 5.30
- pIC50 (MRC-5 cells; MRC5, 24 h, MRC-5 monoculture): < 5.30
- ABCG2 expression [7, 17]: increase (An increase in ABCB1, ABCC1, or ABCG2 expression of at least 20% at a minimum of one concentration is shown in the table.)
- ABCG2 expression [7, 18]: increase (An increase in ABCB1, ABCC1, or ABCG2 expression of at least 20% at a minimum of one concentration is shown in the table.)
- ABCG2 expression [7, 19]: increase (An increase in ABCB1, ABCC1, or ABCG2 expression of at least 20% at a minimum of one concentration is shown in the table.)
- ABCG2 expression [7, 20]: increase (An increase in ABCB1, ABCC1, or ABCG2 expression of at least 20% at a minimum of one concentration is shown in the table.)
- ABCG2 expression [7, 21]: increase (An increase in ABCB1, ABCC1, or ABCG2 expression of at least 20% at a minimum of one concentration is shown in the table.)
- pIC50 (NCI-H460/R cells; [13]): < 5.30
- pIC50 (NCI-H460/R cells; NCI-H460/R monoculture): < 5.30

SMILES: Nc1nc2[nH]cc(CCc3ccc(C(=O)N[C@@H](CCC(=O)O)C(=O)O)cc3)c2c(=O)[nH]1 [Pemetrexed, pemetrexed]
- pIC50 [1, 8]: < 3.52
- pIC50 [1, 9]: < 3.52
- pIC50 [1, 10]: 4.60
- pIC50 [1, 11]: < 3.52
- pIC50 [1, 12]: < 3.52
- ABCB1 Expression [2, 13]: no change
- ABCB1 Expression ([2]; NCI-H460/R monoculture): no change
- ABCB1 Expression [3, 14]: no change
- ABCB1 Expression ([3]; NCI-H460 monoculture): no change
- ABCB1 Expression [4, 15]: no change
- ABCB1 Expression [4, 16]: no change
- ABCB1 Expression ([4]; MRC-5 monoculture): no change
- ABCC1 expression [5, 17]: no change
- ABCC1 expression [5, 18]: no change
- ABCC1 expression [5, 19]: increase (An increase in ABCB1, ABCC1, or ABCG2 expression of at least 20% at a minimum of one concentration is shown in the table.)
- ABCC1 expression [5, 20]: increase (An increase in ABCB1, ABCC1, or ABCG2 expression of at least 20% at a minimum of one concentration is shown in the table.)
- ABCC1 expression [5, 21]: increase (An increase in ABCB1, ABCC1, or ABCG2 expression of at least 20% at a minimum of one concentration is shown in the table.)
- ABCB1 Expression [6, 17]: no change
- ABCB1 Expression [6, 18]: no change
- ABCB1 Expression [6, 19]: no change
- ABCB1 Expression [6, 20]: increase (An increase in ABCB1, ABCC1, or ABCG2 expression of at least 20% at a minimum of one concentration is shown in the table.)
- ABCB1 Expression [6, 21]: increase (An increase in ABCB1, ABCC1, or ABCG2 expression of at least 20% at a minimum of one concentration is shown in the table.)
- pIC50 (MRC-5 cells; [22]): < 3.52
- pIC50 (MRC-5 cells; MRC5, 24 h, MRC-5 monoculture): < 3.52
- pIC50 (MRC-5 cells; MRC5, MRC-5 (co-culture with NCI-H460/R)): < 3.52
- ABCG2 expression [7, 17]: no change
- ABCG2 expression [7, 18]: no change
- ABCG2 expression [7, 19]: no change
- ABCG2 expression [7, 20]: increase (An increase in ABCB1, ABCC1, or ABCG2 expression of at least 20% at a minimum of one concentration is shown in the table.)
- ABCG2 expression [7, 21]: no change
- pIC50 (NCI-H460/R cells; [13]): < 3.52
- pIC50 (NCI-H460/R cells; NCI-H460/R monoculture): < 3.52
